We go through two compounds from the NIST ThermoML archive (doi:10.1021/acs.jced.9b00171).

A short description of data set [1]: refractive index (Na D-line) (dimensionless). To be noted: 101.3 kPa, Liquid, Standard Abbe refractometry.
The conditions of data set [2]: 101.3 kPa, Liquid, Oscillating disk viscometry.

Numbers after ± are expanded uncertainties.

As usually defined, the refractive index is a measure of how strongly the sample bends light. The term viscosity denotes the internal friction of a fluid under shear.

On to `CNCCO` [2-(methylamino)ethanol], for which the refractive index is recorded as 1.4386 ± 0.0022 in data set [1] (293.15 K); 1.437 ± 0.0022 in data set [1] (298.15 K); 1.4352 ± 0.0022 in data set [1] (303.15 K); 1.4331 ± 0.0022 in data set [1] (308.15 K); 1.431 ± 0.0022 in data set [1] (313.15 K); 1.4288 ± 0.0022 in data set [1] (318.15 K). In addition, the refractive index in data set [1] (323.15 K) is reported as 1.4265 ± 0.0023; in data set [1] (328.15 K), 1.4242 ± 0.0023; in data set [1] (333.15 K) it was 1.4218 ± 0.0023. Moreover, the viscosity in data set [2] (293.15 K) stood at 13.12 ± 2.9 mPa·s; in data set [2] (298.15 K), 10.28 ± 2.3 mPa·s; in data set [2] (303.15 K), 8.42 ± 1.8 mPa·s; in data set [2] (308.15 K), 6.78 ± 1.5 mPa·s; in data set [2] (313.15 K), 5.54 ± 1.2 mPa·s; in data set [2] (318.15 K) it was 4.61 ± 0.99 mPa·s. The viscosity in data set [2] (323.15 K) was 3.82 ± 0.82 mPa·s; in data set [2] (328.15 K) it was 3.13 ± 0.69 mPa·s; in data set [2] (333.15 K), 2.42 ± 0.56 mPa·s.
Regarding `NCCNCCO` [N-(2-aminoethyl)ethanolamine], the refractive index in data set [1] (293.15 K) was found to be 1.4856 ± 0.0021; in data set [1] (298.15 K) it was 1.4842 ± 0.0021; in data set [1] (303.15 K), 1.4827 ± 0.0022; in data set [1] (308.15 K) it was 1.481 ± 0.0022; in data set [1] (313.15 K), 1.4792 ± 0.0022; in data set [1] (318.15 K), 1.4772 ± 0.0022. Further, the refractive index in data set [1] (323.15 K) amounted to 1.475 ± 0.002; in data set [1] (328.15 K), 1.4727 ± 0.0023; in data set [1] (333.15 K) it was 1.4702 ± 0.0023. For the same compound, the viscosity is on record as 153.62 ± 41 mPa·s in data set [2] (293.15 K); 99.27 ± 27 mPa·s in data set [2] (298.15 K); 71.31 ± 17 mPa·s in data set [2] (303.15 K); 52.94 ± 13 mPa·s in data set [2] (308.15 K); 37.67 ± 9.1 mPa·s in data set [2] (313.15 K); 28.23 ± 6.5 mPa·s in data set [2] (318.15 K). For the same compound, the values for the viscosity in data set [2] (323.15 K), in data set [2] (328.15 K) and in data set [2] (333.15 K) were 21.55 ± 4.9 mPa·s, 16.43 ± 3.8 mPa·s and 12.74 ± 3 mPa·s, respectively.
